# Species: Rattus norvegicus
# Format: toxicity, organism-based, Sprague-Dawley
# Conditions: in vivo, 24 h, time 1 day; for ALANINE AMINOTRANSFERASE / ALBUMIN / ALKALINE PHOSPHATASE / ASPARTATE AMINOTRANSFERASE / BLOOD UREA NITROGEN / CARBON DIOXIDE / CHLORIDE / CHOLESTEROL / CREATINE PHOSPHOKINASE / CREATININE / GLUCOSE / LACTATE DEHYDROGENASE / LIPASE / PHOSPHORUS / POTASSIUM / SODIUM / TOTAL BILIRUBIN / TOTAL PROTEIN / URIC ACID: tissue Plasma
# [1] = po, 0 mg/kg, vehicle control, tissue Blood, route oral GAVAGE, dose level Control, vehicle 100 % WATER
# [2] = po, 0 mg/kg, vehicle control, route oral GAVAGE, dose level Control, vehicle 100 % WATER
# [3] = po, 2000 mg/kg, tissue Blood, route oral GAVAGE, dose level High, vehicle 100 % WATER
# [4] = po, 2000 mg/kg, route oral GAVAGE, dose level High, vehicle 100 % WATER
# [5] = ip, 0 mg/kg, vehicle control, tissue Blood, route intraperitoneal, dose level Control, vehicle .1 % RSA/SALINE
# [6] = ip, 0 mg/kg, vehicle control, route intraperitoneal, dose level Control, vehicle .1 % RSA/SALINE
# Description: DrugMatrix - Regimen: Single
molecule,measurement,setting,value
CCOC(=O)N1CCC(=C2c3ccc(Cl)cc3CCc3cccnc32)CC1 [LORATADINE],ABSOLUTE BASOPHIL,[1],63.3 cells/µL
same,ABSOLUTE EOSINOPHIL,[1],66.7 cells/µL
same,ABSOLUTE LYMPHOCYTE,[1],8010 cells/µL
same,ABSOLUTE MONOCYTE,[1],240 cells/µL
same,BASOPHIL,[1],0.6%
same,EOSINOPHIL,[1],0.6%
same,ERYTHROCYTE COUNT,[1],6.25 x10E6/uL
same,HEMATOCRIT,[1],40.47%
same,HEMOGLOBIN,[1],12.83 G/DL
same,LEUKOCYTE COUNT,[1],10.19 x10E3/uL
same,LYMPHOCYTE,[1],78.7%
same,MEAN CORPUSCULAR HEMOGLOBIN,[1],20.53 pg
same,MEAN CORPUSCULAR VOLUME,[1],64.67 fL
same,MONOCYTE,[1],2.5%
same,NEUTROPHIL,[1],17.07%
same,PLATELET COUNT,[1],1297 x10E3/uL
same,ALANINE AMINOTRANSFERASE,[2],32.67 u/L
same,ALBUMIN,[2],3.9 G/DL
same,ALKALINE PHOSPHATASE,[2],374 u/L
same,ASPARTATE AMINOTRANSFERASE,[2],64.33 u/L
same,BLOOD UREA NITROGEN,[2],14 mg/dL
same,CARBON DIOXIDE,[2],45.67 mmol/L
same,CHLORIDE,[2],103 MEQ/L
same,CHOLESTEROL,[2],82.67 mg/dL
same,CREATINE PHOSPHOKINASE,[2],216.33 u/L
same,CREATININE,[2],0.17 mg/dL
same,GLUCOSE,[2],161.33 mg/dL
same,LACTATE DEHYDROGENASE,[2],103.67 u/L
same,LIPASE,[2],8.67 u/L
same,PHOSPHORUS,[2],11 mg/dL
same,POTASSIUM,[2],6.83 MEQ/L
same,SODIUM,[2],144.67 MEQ/L
same,TOTAL BILIRUBIN,[2],0.27 mg/dL
same,TOTAL PROTEIN,[2],6.27 G/DL
same,URIC ACID,[2],0.67 mg/dL
same,ABSOLUTE BASOPHIL,[3],63.3 cells/µL
same,ABSOLUTE EOSINOPHIL,[3],56.7 cells/µL
same,ABSOLUTE LYMPHOCYTE,[3],5990 cells/µL
same,ABSOLUTE MONOCYTE,[3],100 cells/µL
same,BASOPHIL,[3],0.97%
same,EOSINOPHIL,[3],0.77%
same,ERYTHROCYTE COUNT,[3],7.26 x10E6/uL
same,HEMATOCRIT,[3],47.47%
same,HEMOGLOBIN,[3],14.97 G/DL
same,LEUKOCYTE COUNT,[3],6.8 x10E3/uL
same,LYMPHOCYTE,[3],87.87%
same,MEAN CORPUSCULAR HEMOGLOBIN,[3],20.6 pg
same,MEAN CORPUSCULAR VOLUME,[3],65.27 fL
same,MONOCYTE,[3],1.5%
same,NEUTROPHIL,[3],8.47%
same,PLATELET COUNT,[3],1455 x10E3/uL
same,ALANINE AMINOTRANSFERASE,[4],19.67 u/L
same,ALBUMIN,[4],4.17 G/DL
same,ALKALINE PHOSPHATASE,[4],348 u/L
same,ASPARTATE AMINOTRANSFERASE,[4],59.33 u/L
same,BLOOD UREA NITROGEN,[4],11.33 mg/dL
same,CARBON DIOXIDE,[4],39.67 mmol/L
same,CHLORIDE,[4],104 MEQ/L
same,CHOLESTEROL,[4],66.33 mg/dL
same,CREATINE PHOSPHOKINASE,[4],336 u/L
same,CREATININE,[4],0.3 mg/dL
same,GLUCOSE,[4],156 mg/dL
same,LACTATE DEHYDROGENASE,[4],112.67 u/L
same,LIPASE,[4],8.33 u/L
same,PHOSPHORUS,[4],12.4 mg/dL
same,POTASSIUM,[4],7.03 MEQ/L
same,SODIUM,[4],145.67 MEQ/L
same,TOTAL BILIRUBIN,[4],0.3 mg/dL
same,TOTAL PROTEIN,[4],6.8 G/DL
same,URIC ACID,[4],0.8 mg/dL
"INTERLEUKIN 6, RAT",ABSOLUTE EOSINOPHIL,[5],109.33 CELLS/uL
same,ABSOLUTE LYMPHOCYTE,[5],13180.67 CELLS/uL
same,ABSOLUTE MONOCYTE,[5],354 CELLS/uL
same,ABSOLUTE SEGMENTED NEUTROPHIL,[5],1756 CELLS/uL
same,BASOPHIL,[5],0%
same,EOSINOPHIL,[5],0.67%
same,ERYTHROCYTE COUNT,[5],5.38 x10E6/uL
same,HEMOGLOBIN,[5],12.57 G/DL
same,LEUKOCYTE COUNT,[5],15.4 x10E3/uL
same,LYMPHOCYTE,[5],85%
same,MEAN CORPUSCULAR HEMOGLOBIN,[5],23.37 pg
same,MEAN CORPUSCULAR HEMOGLOBIN CONCENTRATION,[5],38.3 G/DL
same,NEUTROPHIL,[5],12%
same,NUCLEATED RED BLOOD CELLS,[5],0 /100WBC
same,PLATELET COUNT,[5],832.33 x10E3/uL
same,ALANINE AMINOTRANSFERASE,[6],37.33 u/L
same,ALBUMIN,[6],4 G/DL
same,ALKALINE PHOSPHATASE,[6],344.67 u/L
same,ASPARTATE AMINOTRANSFERASE,[6],69.33 u/L
same,BLOOD UREA NITROGEN,[6],13.67 mg/dL
same,CARBON DIOXIDE,[6],28.33 mmol/L
same,CHLORIDE,[6],99.67 MEQ/L
same,CHOLESTEROL,[6],73.67 mg/dL
same,CREATINE PHOSPHOKINASE,[6],270 u/L
same,CREATININE,[6],0.19 mg/dL
same,GLUCOSE,[6],176.33 mg/dL
same,LACTATE DEHYDROGENASE,[6],160 u/L
same,PHOSPHORUS,[6],13.47 mg/dL
same,POTASSIUM,[6],6.77 MEQ/L
same,TOTAL BILIRUBIN,[6],0.13 mg/dL
same,TOTAL PROTEIN,[6],6.07 G/DL
same,URIC ACID,[6],1.87 mg/dL

# — ChEMBL document CHEMBL3885881, “DrugMatrix”
